We go through 3 molecules from article PMC7501296, “Rapid and direct control of target protein levels with VHL-recruiting dTAG molecules” (Nature Communications, 2020).

Several values for one entry are separate records, joined by “and”; a condition that tells them apart may be missing. Identical values can stand only once.

The target in experiment [1] is T1, FKBP12^F36V-GFP (Homo sapiens, UniProt P62942, F37V).
T1 construct: expressed in transfected cells; host or cells: EWS502 (lentiviral pLEX_305-dTAG-GFP)
The experiment can be described thus: Immunoblot of EWS502 FKBP12F36V-GFP cells. It is filed as cell-based. Conditions: 24 h. The method, then: To generate 293T^WT FKBP12^F36V-KRAS^G12V and 293T^VHL−/− FKBP12^F36V-KRAS^G12V cells, concentrated lentiviral supernatants[6] were applied to 293T^WT and 293T^VHL−/− cells[33] in the presence of 4 µg mL^−1 polybrene and transduced cell lines were selected with 2 µg mL^−1 puromycin. To generate EWS502 FKBP12^F36V-GFP cells, EWS502 cells were transduced with pLEX_305-dTAG-GFP lentiviral supernatant and selected with 1 µg mL^−1 puromycin. To generate EWS502 FKBP12^F36V-EWS/FLI; EWS/FLI^−/− cells, EWS502 cells were co-transduced with pLEX_305-dTAG-EWS/FLI and lentiCRISPR v2-Blast-sgFLI_Ex9 lentiviral supernatants. Cells were then selected with both 1 µg mL^−1 puromycin (pLEX_305-dTAG-EWS/FLI) and 5 µg mL^−1 blasticidin (lentiCRISPR v2-Blast-sgFLI_Ex9). Knockout of endogenous EWS/FLI and the expression of exogenous FKBP12^F36V-EWS/FLI were confirmed by immunoblot and pooled transduced cell populations were employed for this study. […]
PATU-8902 LACZ-FKBP12^F36V and FKBP12^F36V-KRAS^G12V; KRAS^−/− cells and 293T cells were lysed with RIPA buffer supplemented with cOmplete protease inhibitors (Roche), PhosSTOP phosphatase inhibitors (Roche), and 0.1% benzonase (Novagen). […] Membranes were washed three times with TBS-T, incubated with the appropriate fluorescently labeled infrared secondary antibodies, washed again three times with TBS-T, and assessed using an Odyssey CLx Imager (LI-COR)[6],[15]. […]
(A western blot detects proteins with antibodies after separation by electrophoresis.)

Experiment [2] relates to PATU-8902 FKBP12^F36V-KRAS^G12V; KRAS^-/- clone. Kind of experiment: Antiproliferation, PATU-8902 FKBP12F36V-KRASG12V; KRAS-/- clone, 3D-spheroid (CellTiter-Glo). It is filed as cell-based. Conditions: for DMSO-normalized antiproliferation: FKBP12F36V-KRASG12V, KRAS-/-, 3D-spheroid. The procedure, abridged: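 Viability of cells grown as ultra-low adherent 3D-spheroids was determined with CellTiter-Glo (Promega). Luminescence readings were taken on an Envision 2104 plate reader (PerkinElmer) and a Fluostar Omega Reader (BMG Labtech), and the resulting data were processed in GraphPad PRISM v8 to assess effects on cell proliferation.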
A general note: In ATP-based viability assays light output follows the ATP content of the culture.

Setting [3] is: 120 h, log10[compound] (M) -5.69897, single replicates.
Where [4] appears, read: 120 h, log10[compound] (M) -6.19897, single replicates.
The mark [5] stands for this setting: 120 h, log10[compound] (M) -6.69897, single replicates.
Where [6] appears, read: 120 h, log10[compound] (M) -7.19897, single replicates.
Where [7] appears, read: 120 h, log10[compound] (M) -7.69897, single replicates.

T1 sequence (P62942 2-108 F37V limits assumed): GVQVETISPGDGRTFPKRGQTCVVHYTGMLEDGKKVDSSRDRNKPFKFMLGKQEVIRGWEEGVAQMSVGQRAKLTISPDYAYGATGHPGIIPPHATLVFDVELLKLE

In the case of `CC[C@H](C(=O)N1CCCC[C@H]1C(=O)O[C@H](CCc1ccc(OC)c(OC)c1)c1ccccc1OCC(=O)NCCCCCCOc1cccc2c1C(=O)N(C1CCC(=O)NC1=O)C2=O)c1cc(OC)c(OC)c(OC)c1` (stereo partly shown) [dTAG-13], the “FKBP12F36V-GFP degradation, immunoblot” value in experiment [1] is given as “effectively degraded”. Further, the DMSO-normalized antiproliferation in experiment [2] (log10[compound] (M) -5.69897, replicate values) is 12.7187 and 7.467 and 16.3605 and 9.962; in experiment [2] (log10[compound] (M) -6.19897, replicate values), 11.9335 and 12.0003 and 12.0114 and 13.9827; in experiment [2] (log10[compound] (M) -6.69897, replicate values), 14.0106 and 15.4027 and 13.0027 and 15.9484; in experiment [2] (log10[compound] (M) -7.19897, replicate values), 14.0384 and 16.4385 and 16.9619 and 11.7776; in experiment [2] (log10[compound] (M) -7.69897, replicate values) it was 14.9517 and 15.5419 and 18.3931 and 15.5976; in experiment [2] (log10[compound] (M) -8.19897, replicate values), 24.6577 and 23.0874 and 23.2266 and 22.4971. Besides, the DMSO-normalized antiproliferation in experiment [2] (log10[compound] (M) -8.69897, replicate values) was 42.8837 and 45.8128 and 51.5651 and 55.5467; in experiment [2] (log10[compound] (M) -9.19897, replicate values), 69.8747 and 70.4761 and 56.6493 and 74.3184; in experiment [2] (log10[compound] (M) -9.69897, replicate values), 76.2117 and 76.4178 and 69.3902 and 68.6162; in experiment [2] (log10[compound] (M) -10.199, replicate values) it was 73.2492 and 74.079 and 68.7888 and 65.637.
Consider `CCC(C(=O)N1CCCCC1C(=O)OC(CCc1ccc(OC)c(OC)c1)c1ccccc1OCC(=O)NCCCCCCC(=O)NC(C(=O)N1CC(O)CC1C(=O)NC(C)c1ccc(-c2scnc2C)cc1)C(C)(C)C)c1cc(OC)c(OC)c(OC)c1` (stereo not shown) [dTAG^V-1-NEG], for which the DMSO-normalized antiproliferation in experiment [2] (setting [3]) is 37.3931 and 26.551 and 27.3028 and 28.0546; in experiment [2] (setting [4]), 78.1886 and 92.1435 and 64.5511 and 70.1475; in experiment [2] (setting [5]), 103.503 and 85.567 and 103.938 and 98.1965; in experiment [2] (setting [6]), 124.063 and 123.712 and 110.481 and 131.998; in experiment [2] (setting [7]), 94.7496 and 116.061 and 121.718 and 128.178; in experiment [2] (120 h, log10[compound] (M) -8.19897, single replicates), 119.268 and 103.119 and 108.576 and 125.767. For the same molecule, the DMSO-normalized antiproliferation in experiment [2] (120 h, log10[compound] (M) -8.69897, single replicates) is 120.883 and 119.814 and 120.521 and 105.703; in experiment [2] (120 h, log10[compound] (M) -9.19897, single replicates) it was 102.117 and 92.5221 and 111.366 and 98.8369; in experiment [2] (120 h, log10[compound] (M) -9.69897, single replicates), 88.1174 and 98.3023 and 99.984 and 124.954; in experiment [2] (120 h, log10[compound] (M) -10.199, single replicates), 99.0429 and 90.8682 and 97.0717 and 101.855.
Take `CC[C@H](C(=O)N1CCCC[C@H]1C(=O)O[C@H](CCc1ccc(OC)c(OC)c1)c1ccccc1OCC(=O)NCCCCCCC(=O)N[C@H](C(=O)N1C[C@H](O)C[C@H]1C(=O)N[C@@H](C)c1ccc(-c2scnc2C)cc1)C(C)(C)C)c1cc(OC)c(OC)c(OC)c1` [dTAG^V-1]: the “FKBP12F36V-GFP degradation, immunoblot” value in experiment [1] is “effectively degraded”. Besides, the “Cell proliferation upon FKBP12F36V-KRASG12V degradation” value in experiment [2] (2D-monolayer and 3D-spheroid cultures, 120 h) is recorded as “diminished cell proliferation”. The DMSO-normalized antiproliferation in experiment [2] (setting [3]) was 14.2222 and 15.5085 and 18.1313 and 19.3564; in experiment [2] (setting [4]), 19.4455 and 15.9874 and 15.9651 and 15.7814; in experiment [2] (setting [5]), 16.8171 and 16.5888 and 12.056 and 15.8705; in experiment [2] (setting [6]) it was 11.0759 and 11.8444 and 17.6524 and 14.6677; in experiment [2] (setting [7]) it was 20.7875 and 17.3072 and 22.4693 and 16.2436.
